In ChEMBL document CHEMBL1128242, “Polyiodinated triglyceride analogs as potential computed tomography imaging agents for the liver” (J Med Chem, 1995):

Columns and labels:
Rattus norvegicus [1] = assay: Polyacrylamide Gel Electrophoresis (PAGE) to determined the concentration of high density lipoprotein (HDL) in rats after iv administration of [125I]-labeled 2-Oleolyl 1,3-disubstituted triglycerols was reported; type: ADME, organism-based; conditions: in vivo
Rattus norvegicus [2] = assay: Polyacrylamide Gel Electrophoresis (PAGE) to determined the concentration of albumin(ALB) in rats after iv administration of [125I]-labeled 2-Oleolyl 1,3-disubstituted triglycerols was reported; type: ADME, organism-based; conditions: in vivo
Rattus norvegicus [3] = assay: Distribution of radioactivity was determined in heart at 3h after intravenous administration of [125I]-labeled 2-oleoglycerol 1,3-Bis-[omega-(3-amino-2,4,6-triiodophenyl)alkanoates] in rats; type: ADME, organism-based; conditions: in vivo
Rattus norvegicus [4] = assay: Distribution of radioactivity was determined in spleen at 48 hr after intravenous administration of 1,3-Disubstituted Triacylglycerols in rats; type: ADME, organism-based; conditions: in vivo
Rattus norvegicus [5] = assay: Polyacrylamide Gel Electrophoresis (PAGE) to determined the concentration of below albumin(BA) in rats after iv administration of [125I]-labeled 2-Oleolyl 1,3-disubstituted triglycerols was reported; type: ADME, organism-based; conditions: in vivo
Rattus norvegicus [6] = assay: Distribution of radioactivity was determined in thyroid at 24 hr after intravenous administration of [125I]-labeled 2-oleoglycerol 1,3-Bis-[omega-(3-amino-2,4,6-triiodophenyl)alkanoates] in rats; type: ADME, organism-based, Thyroid gland; conditions: in vivo
Rattus norvegicus [7] = assay: Distribution of radioactivity was determined in spleen at 24 hr after intravenous administration of [125I]-labeled 2-oleoglycerol 1,3-Bis-[omega-(3-amino-2,4,6-triiodophenyl)alkanoates] in rats; type: ADME, organism-based; conditions: in vivo
Rattus norvegicus [8] = assay: Distribution of radioactivity was determined in liver at 30 min after intravenous administration of 1,3-Disubstituted Triacylglycerols in rats; type: ADME, organism-based; conditions: in vivo, 0.5 h
Rattus norvegicus [9] = assay: Analysis of lipid-soluble radioactivity in liver 0.5 hour after iv administration of [125I]-labeled 2-Oleoyl 1,3-disubstituted Triacylglycerols expressed as %parent compound (by TLC with authentic [125I]-labeled standard) from rat; type: ADME, organism-based; conditions: in vivo
Rattus norvegicus [10] = assay: Distribution of radioactivity was determined in lung at 24 hr after intravenous administration of [125I]-labeled 2-oleoglycerol 1,3-Bis-[omega-(3-amino-2,4,6-triiodophenyl)alkanoates] in rats; type: ADME, organism-based; conditions: in vivo
Rattus norvegicus [11] = assay: Distribution of radioactivity was determined in blood at 30 min after intravenous administration of [125I]-labeled 2-oleoglycerol 1,3-Bis-[omega-(3-amino-2,4,6-triiodophenyl)alkanoates] in rats; type: ADME, organism-based; conditions: in vivo, 0.5 h
Rattus norvegicus [12] = assay: Analysis of lipid-soluble radioactivity in liver 24 hour after iv administration of [125I]-labeled 2-Oleoyl 1,3-disubstituted Triacylglycerols and represented as % CHCl3/CH3OH from rat; type: ADME, organism-based; conditions: in vivo
Rattus norvegicus [13] = assay: Distribution of radioactivity was determined in heart at 30 min after intravenous administration of [125I]-labeled 2-oleoglycerol 1,3-Bis-[omega-(3-amino-2,4,6-triiodophenyl)alkanoates] in rats; type: ADME, organism-based; conditions: in vivo, 0.5 h
Rattus norvegicus [14] = assay: Distribution of radioactivity was determined in blood at 48 hr after intravenous administration of 1,3-Disubstituted Triacylglycerols in rats; type: ADME, organism-based; conditions: in vivo
Rattus norvegicus [15] = assay: Distribution of radioactivity was determined in liver at 48 hr after intravenous administration of 1,3-Disubstituted Triacylglycerols in rats; type: ADME, organism-based; conditions: in vivo
Rattus norvegicus [16] = assay: Distribution of radioactivity was determined in spleen at 3h after intravenous administration of [125I]-labeled 2-oleoglycerol 1,3-Bis-[omega-(3-amino-2,4,6-triiodophenyl)alkanoates] in rats; type: ADME, organism-based; conditions: in vivo
Rattus norvegicus [17] = assay: Analysis of lipid-soluble radioactivity in plasma 0.5 hour after iv administration of [125I]-labeled 2-Oleoyl 1,3-disubstituted Triacylglycerols and represented as % CHCl3/CH3OH from rat; type: ADME, organism-based; conditions: in vivo
Rattus norvegicus [18] = assay: Analysis of lipid-soluble radioactivity in plasma 24 hour after iv administration of [125I]-labeled 2-Oleoyl 1,3-disubstituted Triacylglycerols and represented as % CHCl3/CH3OH from rat; type: ADME, organism-based; conditions: in vivo
Rattus norvegicus [19] = assay: Analysis of lipid-soluble radioactivity in liver 0.5 hour after iv administration of [125I]-labeled 2-Oleoyl 1,3-disubstituted Triacylglycerols and represented as % CHCl3/CH3OH from rat; type: ADME, organism-based; conditions: in vivo
Rattus norvegicus [20] = assay: Distribution of radioactivity was determined in liver at 30 min after intravenous administration of [125I]-labeled 2-oleoglycerol 1,3-Bis-[omega-(3-amino-2,4,6-triiodophenyl)alkanoates] in rats; type: ADME, organism-based; conditions: in vivo, 0.5 h
Rattus norvegicus [21] = assay: Distribution of radioactivity was determined in lung at 30 min after intravenous administration of [125I]-labeled 2-oleoglycerol 1,3-Bis-[omega-(3-amino-2,4,6-triiodophenyl)alkanoates] in rats; type: ADME, organism-based; conditions: in vivo, 0.5 h
Rattus norvegicus [22] = assay: Distribution of radioactivity was determined in liver at 24 hr after intravenous administration of 1,3-Disubstituted Triacylglycerols in rats; type: ADME, organism-based; conditions: in vivo
Rattus norvegicus [23] = assay: Distribution of radioactivity was determined in spleen at 24 hr after intravenous administration of 1,3-Disubstituted Triacylglycerols in rats; type: ADME, organism-based; conditions: in vivo
Rattus norvegicus [24] = assay: Analysis of lipid-soluble radioactivity in liver 24 hour after iv administration of [125I]-labeled 2-Oleoyl 1,3-disubstituted Triacylglycerols expressed as %parent compound (by TLC with authentic [125I]-labeled standard) from rat; type: ADME, organism-based; conditions: in vivo
Rattus norvegicus [25] = assay: Distribution of radioactivity was determined in kidney at 3h after intravenous administration of [125I]-labeled 2-oleoglycerol 1,3-Bis-[omega-(3-amino-2,4,6-triiodophenyl)alkanoates] in rats; type: ADME, organism-based; conditions: in vivo
Rattus norvegicus [26] = assay: Distribution of radioactivity was determined in blood at 3h after intravenous administration of [125I]-labeled 2-oleoglycerol 1,3-Bis-[omega-(3-amino-2,4,6-triiodophenyl)alkanoates] in rats; type: ADME, organism-based; conditions: in vivo
Rattus norvegicus [27] = assay: Distribution of radioactivity was determined in thyroid at 3h after intravenous administration of [125I]-labeled 2-oleoglycerol 1,3-Bis-[omega-(3-amino-2,4,6-triiodophenyl)alkanoates] in rats; type: ADME, organism-based, Thyroid gland; conditions: in vivo
Rattus norvegicus [28] = assay: Distribution of radioactivity was determined in kidney at 24 hr after intravenous administration of [125I]-labeled 2-oleoglycerol 1,3-Bis-[omega-(3-amino-2,4,6-triiodophenyl)alkanoates] in rats; type: ADME, organism-based; conditions: in vivo
Rattus norvegicus [29] = assay: Distribution of radioactivity was determined in liver at 3h after intravenous administration of 1,3-Disubstituted Triacylglycerols in rats; type: ADME, organism-based; conditions: in vivo
Rattus norvegicus [30] = assay: Distribution of radioactivity was determined in heart at 24 after intravenous administration of [125I]-labeled 2-oleoglycerol 1,3-Bis-[omega-(3-amino-2,4,6-triiodophenyl)alkanoates] in rats; type: ADME, organism-based; conditions: in vivo
Rattus norvegicus [31] = assay: Distribution of radioactivity was determined in plasma at 30 min after intravenous administration of [125I]-labeled 2-oleoglycerol 1,3-Bis-[omega-(3-amino-2,4,6-triiodophenyl)alkanoates] in rats; type: ADME, organism-based; conditions: in vivo, 0.5 h
Rattus norvegicus [32] = assay: Distribution of radioactivity was determined in thyroid at 30 min after intravenous administration of [125I]-labeled 2-oleoglycerol 1,3-Bis-[omega-(3-amino-2,4,6-triiodophenyl)alkanoates] in rats; type: ADME, organism-based, Thyroid gland; conditions: in vivo, 0.5 h
Rattus norvegicus [33] = assay: Distribution of radioactivity was determined in lung at 3h after intravenous administration of [125I]-labeled 2-oleoglycerol 1,3-Bis-[omega-(3-amino-2,4,6-triiodophenyl)alkanoates] in rats; type: ADME, organism-based; conditions: in vivo
Rattus norvegicus [34] = assay: Distribution of radioactivity was determined in spleen at 3h after intravenous administration of 1,3-Disubstituted Triacylglycerols in rats; type: ADME, organism-based; conditions: in vivo
Rattus norvegicus [35] = assay: Distribution of radioactivity was determined in liver at 24 hr after intravenous administration of [125I]-labeled 2-oleoglycerol 1,3-Bis-[omega-(3-amino-2,4,6-triiodophenyl)alkanoates] in rats; type: ADME, organism-based; conditions: in vivo

| Compound | Radioactivity (Rattus norvegicus [1]) | Radioactivity (Rattus norvegicus [2]) | Distribution of radioactivity (Rattus norvegicus [3]) | Distribution of radioactivity (Rattus norvegicus [4]) | Radioactivity (Rattus norvegicus [5]) | Distribution of radioactivity (Rattus norvegicus [6]) | Distribution of radioactivity (Rattus norvegicus [7]) | Radioactivity per organ (Rattus norvegicus [8]) | Lipid-soluble radioactivity (Rattus norvegicus [9]) | Distribution of radioactivity (Rattus norvegicus [10]) | Distribution of radioactivity (Rattus norvegicus [11]) | Lipid-soluble radioactivity (Rattus norvegicus [12]) | Distribution of radioactivity (Rattus norvegicus [13]) | Distribution of radioactivity (Rattus norvegicus [14]) | Distribution of radioactivity (Rattus norvegicus [15]) | Distribution of radioactivity (Rattus norvegicus [16]) | Lipid-soluble radioactivity (Rattus norvegicus [17]) | Lipid-soluble radioactivity (Rattus norvegicus [18]) | Lipid-soluble radioactivity (Rattus norvegicus [19]) | Distribution of radioactivity (Rattus norvegicus [20]) | further results |
| --- | --- | --- | --- | --- | --- | --- | --- | --- | --- | --- | --- | --- | --- | --- | --- | --- | --- | --- | --- | --- | --- |
| CCCCCCCC/C=C/CCCCCCCC(=O)OC(COC(=O)CCCCc1c(I)cc(I)c(N)c1I)COC(=O)CCCCc1c(I)cc(I)c(N)c1I | 5.5% | 20.7% | 0.09 % dose/g | 3.7 % dose per organ | 0.1% | 6.74 % dose/g | 13.7 % dose/g | 65.1 % dose/organ | 98.9 | 0.59 % dose/g | 0.08 % dose/g | 88.8 | 0.59 % dose/g | 0.7 % dose per organ | 26.8 % dose/organ | 14.5 % dose/g | 77.4 | 54.5 | 91.1 | 7.37 % dose/g | Distribution of radioactivity (Rattus norvegicus [21]): 0.54 % dose/g; Distribution of radioactivity (Rattus norvegicus [22]): 36.1 % dose/organ; Distribution of radioactivity (Rattus norvegicus [23]): 6.4 % dose/organ; Lipid-soluble radioactivity (Rattus norvegicus [24]): 86.5; Distribution of radioactivity (Rattus norvegicus [25]): 0.09 % dose/g; Distribution of radioactivity (Rattus norvegicus [26]): 0.08 % dose/g; Distribution of radioactivity (Rattus norvegicus [27]): 1.16 % dose/g; Distribution of radioactivity (Rattus norvegicus [28]): 0.2 % dose/g; Distribution of radioactivity (Rattus norvegicus [29]): 60.7 % dose/organ; Distribution of radioactivity (Rattus norvegicus [30]): 0.07 % dose/g; Distribution of radioactivity (Rattus norvegicus [31]): 0.1 % dose/g; Distribution of radioactivity (Rattus norvegicus [32]): 0.54 % dose/g; Distribution of radioactivity (Rattus norvegicus [33]): 0.46 % dose/g; Distribution of radioactivity (Rattus norvegicus [34]): 8 % dose/organ; Distribution of radioactivity (Rattus norvegicus [35]): 4.53 % dose/g |
| CCCCCCCC/C=C/CCCCCCCC(=O)OC(COC(=O)C(CC)Cc1c(I)cc(I)c(N)c1I)COC(=O)C(CC)Cc1c(I)cc(I)c(N)c1I (stereo not given) | 2.5% | 4.9% | 0.25 % dose/g | 9.8 % dose per organ | 1.5% | 17.3 % dose/g | 21.7 % dose/g | 78 % dose/organ | 78.6 | 0.62 % dose/g | 0.26 % dose/g | 93.7 | 0.84 % dose/g | 0.1 % dose per organ | 71.6 % dose/organ | 17.7 % dose/g | 88.2 | 83 | 97.5 | 9.67 % dose/g | Distribution of radioactivity (Rattus norvegicus [21]): 0.34 % dose/g; Distribution of radioactivity (Rattus norvegicus [22]): 77 % dose/organ; Distribution of radioactivity (Rattus norvegicus [23]): 12.5 % dose/organ; Lipid-soluble radioactivity (Rattus norvegicus [24]): 64.7; Distribution of radioactivity (Rattus norvegicus [25]): 0.03 % dose/g; Distribution of radioactivity (Rattus norvegicus [26]): 0.02 % dose/g; Distribution of radioactivity (Rattus norvegicus [27]): 5.08 % dose/g; Distribution of radioactivity (Rattus norvegicus [28]): 0.05 % dose/g; Distribution of radioactivity (Rattus norvegicus [29]): 80 % dose/organ; Distribution of radioactivity (Rattus norvegicus [30]): 0.06 % dose/g; Distribution of radioactivity (Rattus norvegicus [31]): 0.42 % dose/g; Distribution of radioactivity (Rattus norvegicus [32]): 2.88 % dose/g; Distribution of radioactivity (Rattus norvegicus [33]): 0.2 % dose/g; Distribution of radioactivity (Rattus norvegicus [34]): 11.3 % dose/organ; Distribution of radioactivity (Rattus norvegicus [35]): 10.2 % dose/g |
